In patent US5759785A, “Method of identifying hormone antagonists and agonists” (Baylor College of Medicine, priority 1995, dated 1998):
One block for each molecule: values may come before it.

Legend:
[1] = tested on: retinoic acid receptor (RAR); test: Trypsin digestion of translated RAR; type: biochemical; conditions: preincubated with 2 μM retinoic acid
Description: (§1) To 5 μl of hormone-treated (10 minutes at room temperature (PR) or 37° C. (ER)) labeled translation mix, 0.5 μl of protease (diluted in water) was added followed by incubation for 10 minutes. The rate of digestion is dependent on the concentration of enzyme used. ER translation mixes were made 10 mM in MgCl2 before hormone addition. 0.5 μl was removed and mixed with 10 μl of denaturing loading dye, boiled for 5 minutes, and immediately loaded on 1.5 mm thick 0.1% (w/v) sodium dodecyl sulphate-12% (w/v) polyacrylamide gels. Denaturing gel electrophoresis was performed as described in Promega's translation handbook. Following electrophoresis, gels were treated with 30% (v/v) methanol/10% (v/v) acetic acid, then with EN^3 HANCE, and were vacuum dried at 60° C. for 30 minutes, followed by 80° C. for 45 minutes. Autoradiography was performed overnight. Promega's rabbit reticulocyte lysates average a protein concentration of 130 mg/ml; 5 μg of protease per ml of translation mix is therefore roughly equivalent to 60 ng of protease per mg of protein.
(§2) The receptors were translated as a polypeptides of predicted molecular weight (FIG. 7A and 7B, lane 1). Trypsin digestion of RAR and TR which had been preincubated with 2 μM retinoic acid and 10^-T MT3 produced a resistant 31 kd fragment, which was not detectable following digestion of carrier-treated receptor (compare lanes 2-6 with lanes 8-12). […]

[2] = tested on: thyroxine receptor (TR); test: Trypsin digestion of translated TR; type: biochemical; conditions: preincubated with 10^-T MT3
Description: as §1, §2

[3] = tested on: A-form human PR; test: Electrophoretic mobility shift assay, in vitro translated PR binding to a PRE; type: biochemical; conditions: 100 nM ligand (progesterone also 10 nM)
Description: (§3) EMSAs were carried out as previously described (Bagchi et al., Mol. Cell. Biol., 2:1221, 1988), except that 100 ng (PR) or 1 μg (ER) of Poly(dI-dC)(dI-dC) were used as competitor and 10 mM MgCl2 was used when testing estrogen receptor. 4 μl of unlabeled translation mix were used per 10 μl reaction. Proteins were incubated with ligand at room temperature (PR) or 37° C. (ER) for 10 minutes, followed by the addition of DNA and further incubation for 10 minutes. For the experiment in FIG. 2, all incubations were carried out at 30° C. in the presence of 300 U/ml calf intestinal alkaline phosphatase. All mixing was done by gentle vortexing. DNA-protein complexes were resolved on 4% (w/v) gels.
Hormone-dependent activity of the in vitro synthesized PR was measured, i.e., its ability to bind DNA specifically was examined by electrophoretic mobility shift assay (EMSA) (FIG. 1A). Unlabeled receptors were incubated with a ^32 P-end-labeled oligonucleotide equivalent to a PRE from the tyrosine aminotransferase gene upstream region.

[4] = molecular target: T1, hPR (Homo sapiens, UniProt P06401); test: Bandshift analysis of T47D extract hPR with C-262 antibody supershift; type: biochemical; conditions: T47D extracts; 100 nM ligand
T1 sequence (P06401 1-933): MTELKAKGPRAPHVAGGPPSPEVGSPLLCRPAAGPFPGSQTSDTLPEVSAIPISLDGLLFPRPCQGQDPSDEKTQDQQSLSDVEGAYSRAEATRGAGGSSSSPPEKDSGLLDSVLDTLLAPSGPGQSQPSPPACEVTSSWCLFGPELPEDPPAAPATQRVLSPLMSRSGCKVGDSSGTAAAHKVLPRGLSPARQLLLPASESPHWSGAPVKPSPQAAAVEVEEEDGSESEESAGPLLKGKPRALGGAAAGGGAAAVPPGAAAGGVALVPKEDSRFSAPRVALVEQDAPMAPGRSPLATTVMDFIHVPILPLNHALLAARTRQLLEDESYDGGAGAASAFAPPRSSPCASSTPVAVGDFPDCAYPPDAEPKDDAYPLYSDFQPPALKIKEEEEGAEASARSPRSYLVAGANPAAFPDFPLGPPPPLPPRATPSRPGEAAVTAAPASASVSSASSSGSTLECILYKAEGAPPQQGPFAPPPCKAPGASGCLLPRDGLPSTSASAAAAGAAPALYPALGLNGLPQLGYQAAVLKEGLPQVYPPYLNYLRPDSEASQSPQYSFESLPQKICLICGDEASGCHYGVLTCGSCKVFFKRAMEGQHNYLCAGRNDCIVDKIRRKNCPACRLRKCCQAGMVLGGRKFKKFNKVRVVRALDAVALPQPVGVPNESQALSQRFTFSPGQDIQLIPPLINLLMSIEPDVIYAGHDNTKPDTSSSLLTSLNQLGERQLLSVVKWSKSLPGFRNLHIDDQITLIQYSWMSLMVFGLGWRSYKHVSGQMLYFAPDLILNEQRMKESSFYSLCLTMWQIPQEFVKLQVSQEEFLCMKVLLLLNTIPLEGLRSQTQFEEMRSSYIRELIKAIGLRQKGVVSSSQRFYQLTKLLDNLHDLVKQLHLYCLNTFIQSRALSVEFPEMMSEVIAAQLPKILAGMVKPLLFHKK
Description: In panel (A), T47D extracts were treated in vitro with 100 nM progesterone (P, lanes 2, 5, 8, 11 and 13), RU486 (R, lanes 3, 6 and 9) or with an equal amount (0.01% (v/v)) of ethanol carrier (-, lanes 1, 4, 7, 10, 12 and 14), followed by the addition of N-terminal-binding (AB52, lanes 7 to 9 and 14) or C-terminal-binding (C-262, lanes 4 to 13) anti-hPR monoclonal antibodies, or a control anti-cPR antibody (PR22, lanes 1 to 3). […] Binding to a PRE was assessed by bandshift analysis. The positions of specific DNA-protein complexes and of free probe are indicated. (B) The effect of ligands on C-262 supershifting was tested as in (A), except that extracts were treated with 100 nM Org31376 (OI, lanes 3, 7 and 11), Org31806 (OII, lanes 4, 8 and 12) or progesterone (P, lanes 2, 6 and 10).
A monoclonal antibody (C-262), which was raised against the C-terminal 14 amino acids of PR was used to determine if there was a difference in the accessibility of the epitope when the receptor was bound to an agonist or an antagonist.
The epitope recognized by C-262 antibody was the C-terminus of the receptor. A peptide corresponding to the C-terminal 14 amino acid tail was preincubated with the antibody prior to addition to the band-shift reaction.

[5] = tested on: A-form human PR; test: Limited proteolytic digestion of translated PR; type: biochemical; conditions: 100 nM ligand; for protease-resistant PR fragment: chymotrypsin, trypsin or subtilisin digestion; for proteolytic fragment pattern / conformational change of PR: trypsin (Org compounds) or subtilisin (R5020)
Description: as §1
Proteolytic analysis is a powerful method for analyzing conformation changes within proteins. [^35 S]methionine-labeled PR was treated with progesterone, Ru38486 or ethanol, then digested for a short period of time with different amounts of various proteases. Digestion products were analyzed by denaturing gel electrophoresis.

[6] = molecular target: T2, Human ER (Homo sapiens, UniProt P03372); test: Electrophoretic mobility shift assay, translated ER binding to an ERE; type: biochemical; conditions: 100 nM ligand; 10 mM MgCl2, 37° C.
T2 sequence (P03372 1-595): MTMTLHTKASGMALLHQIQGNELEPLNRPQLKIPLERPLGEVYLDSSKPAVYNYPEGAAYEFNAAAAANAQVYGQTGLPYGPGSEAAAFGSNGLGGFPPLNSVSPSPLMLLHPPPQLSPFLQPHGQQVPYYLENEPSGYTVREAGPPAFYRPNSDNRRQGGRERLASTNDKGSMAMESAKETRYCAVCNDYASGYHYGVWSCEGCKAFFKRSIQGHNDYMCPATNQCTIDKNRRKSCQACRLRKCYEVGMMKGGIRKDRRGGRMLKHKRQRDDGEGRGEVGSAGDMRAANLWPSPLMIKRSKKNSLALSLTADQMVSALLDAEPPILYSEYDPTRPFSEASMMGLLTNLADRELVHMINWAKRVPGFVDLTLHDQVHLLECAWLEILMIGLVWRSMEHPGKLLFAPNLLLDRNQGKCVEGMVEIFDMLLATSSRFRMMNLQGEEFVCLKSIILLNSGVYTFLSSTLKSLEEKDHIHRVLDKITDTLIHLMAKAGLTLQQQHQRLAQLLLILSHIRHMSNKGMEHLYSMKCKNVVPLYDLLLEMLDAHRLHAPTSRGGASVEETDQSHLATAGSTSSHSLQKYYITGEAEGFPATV
Description: as §3

[7] = tested on: ER; conditions: cited from earlier work
[8] = tested on: progesterone action; conditions: cited from earlier work

Molecule: CC1=C(/C=C/C(C)=C/C=C/C(C)=C/C(=O)O)C(C)(C)CCC1 [retinoic acid]
trypsin-resistant RAR fragment [1]: 31 kd

trypsin-resistant TR fragment [2]: 31 kd
Molecule: thyroxine [T3]

recognition (supershift) of ligand-bound hPR-DNA complex by C-262 antibody [4]: exposed
Molecule: CC#C[C@]1(O)CC[C@H]2[C@@H]3CCC4=CC(=O)CCC4=C3[C@@H](c3ccc(N(C)C)cc3)C[C@@]21C [Ru38486]
binding of translated PR to a PRE (specific DNA-protein complex, EMSA) [3]: promoted binding to the PRE that was at least as strong as that induced by an equal concentration (100 nM) of progesterone
protease-resistant PR fragment [5]: 27 kd

Molecule: CCCCN(C)C(=O)CCCCCCCCCC[C@@H]1Cc2cc(O)ccc2[C@H]2CC[C@]3(C)[C@@H](O)CC[C@H]3[C@H]12 [ICI 164,384]
binding of translated ER to an ERE (EMSA) [6]: induces high affinity DNA binding
agonistic activity [7]: no detectable agonistic activity

Molecule: CC(=O)[C@H]1CC[C@H]2[C@@H]3CCC4=CC(=O)CC[C@]4(C)[C@H]3CC[C@]12C [progesterone]
binding of translated PR to a PRE (specific DNA-protein complex, EMSA) [3]: Specific DNA-protein complexes were obtained
recognition (supershift) of ligand-bound hPR-DNA complex by C-262 antibody [4]: almost totally prevented recognition of the receptor by C-262 antibody
protease-resistant PR fragment [5]: 30 kd

Molecule: C[C@H]1CC2=CC(=O)CCC2=C2[C@@H]1[C@@H]1CC[C@@]3(CCCO3)[C@@]1(C)C[C@@H]2c1ccc(N(C)C)cc1 [Org 31806]
antagonism of progesterone action in vivo [8]: strongly antagonize progesterone action in vivo
binding of translated PR to a PRE (specific DNA-protein complex, EMSA) [3]: induce binding of translated PR to a PRE in vitro
recognition (supershift) of ligand-bound hPR-DNA complex by C-262 antibody [4]: resulted in supershifting of PR-DNA complexes
proteolytic fragment pattern / conformational change of PR [5]: indistinguishable from that induced by Ru38486

Molecule: CCC(=O)[C@@]1(C)CC[C@H]2[C@@H]3CCC4=CC(=O)CCC4=C3CC[C@@]21C [R5020]
proteolytic fragment pattern / conformational change of PR [5]: R5020 and progesterone induced the same conformational changes

binding of translated PR to a PRE (specific DNA-protein complex, EMSA) [3]: failed to induce a specific complex
Molecule: C[C@]12CC[C@@H]3c4ccc(O)cc4CC[C@H]3[C@@H]1CC[C@@H]2O [estradiol, 17β-estradiol]
